According to patent publication US10173996B2, “Histone demethylase inhibitors” (CELGENE QUANTICEL RESEARCH, INC., priority 2012, dated 2019):

test system: KDM5A and KDM5B (tri-methyl H3K4, ZR-75-1 breast cancer cell line); experiment: In vitro cell-based assay: tri-methyl H3K4 immuno-blotting in ZR-75-1 breast cancer cells; conditions: Homo sapiens, 72 hours with test compound, read-out: Cellular IC50
From the text: This quantitative immuno-blotting assay measures the amount tri-methylated histone H3 at amino acid Lysine number 4, a specific substrate […] of the direct enzymatic activity of the histone demethylases KDM5A and KDM5B from extracts of the ZR-75-1 breast cancer cell line.
This assay is a fluorometric immunoassay for the quantification of tri-methyl H3K4 extracted from cells treated with test compound and is used as a measure of the cellular inhibition of KDM5A/B.
ZR-75-1(PTEN null, ER+) breast cancer cells numbering 50,000 (ATCC) were seeded into each well of a 96-well tissue culture treated plate and then exposed to an 11 point dilution of test compound with final concentration ranges of test compound ranging from […] to 10 nM. […] Extracts were prepared containing all of the cellular histone material using detergent based lysis and sonication methods. These lysates were subsequently normalized for total protein content using a colorimetric bicinchonic acid assay (MicroBCA Pierce/Thermo Scientific). Normalized cell extracts were then subjected to typical immuno-blotting procedures using NuPage reagents (Life Technologies). Electrophoretically separated histones were then transferred and immobilized using polyvinylidene difluoride membrane (Immobilon-FL Millipore). The amount of tri-methylated lysine 4 of histone H3 was detected using an antibody specific to the tri-methylated state (Cell Signaling Technologies) and quantified on an infrared imager using a densitometry software package (Odyssey CLx, Image Studio, Li-Cor). This background subtracted densitometry value was reported as a ration of the GAPDH amount for that sample and then calculated as a percent of the DMSO treated sample. The software package XL-fit (IDBS) was then used to calculate a relative IC50 value for the dilution series of a given test compound according to the equation: fit=(D+((Vmax*(x^n))/((x^n)+(Km^n)))).

Row | IC50 [µM] | Structure (SMILES)
1 | 1 to 10 | O=C(O)c1ccnc(-n2nccc2OCc2ccccc2)c1 [Example 39, 2-(5-(benzyloxy)-1H-pyrazol-1-yl)isonicotinic acid]
2 | 0.1 to 1 | O=C(O)c1ccnc(-n2nccc2OCc2ccc(F)cc2)c1 [Example 40, 2-{5-[(4-fluorobenzyl)oxy]-1H-pyrazol-1-yl}pyridine-4-carboxylic acid]
3 | > 10 | O=C(O)c1ccnc(-n2nccc2OCc2cccc(F)c2)c1 [Example 41, 2-{5-[(3-fluorobenzyl)oxy]-1H-pyrazol-1-yl}pyridine-4-carboxylic acid]
4 | 1 to 10 | O=C(O)c1ccnc(-n2nccc2OCc2ccc(Cl)cc2F)c1 [Example 75, 2-{5-[(4-chloro-2-fluorobenzyl)oxy]-1H-pyrazol-1-yl}pyridine-4-carboxylic acid]
5 | 1 to 10 | O=C(O)c1ccnc(-n2nccc2OCc2ccc(F)c(Cl)c2)c1 [Example 76, 2-{5-[(3-chloro-4-fluorobenzyl)oxy]-1H-pyrazol-1-yl}pyridine-4-carboxylic acid]
6 | 1 to 10 | O=C(O)c1ccnc(-n2nccc2OCc2ccc(F)cc2F)c1 [Example 86, 2-[5-[(2,4-difluorophenyl)methoxy]pyrazol-1-yl]pyridine-4-carboxylic acid]
7 | 0.1 to 1 | COc1cc(Cl)ccc1COc1ccnn1-c1cc(C(=O)O)ccn1 [Example 90, 2-[5-[(4-chloro-2-methoxyphenyl)methoxy]pyrazol-1-yl]pyridine-4-carboxylic acid]
8 | 0.1 to 1 | Cc1ccc(COc2ccnn2-c2cc(C(=O)O)ccn2)cc1F [Example 93, 2-[5-[(3-fluoro-4-methylphenyl)methoxy]pyrazol-1-yl]pyridine-4-carboxylic acid]
9 | 1 to 10 | Cc1ccc(COc2ccnn2-c2cc(C(=O)O)ccn2)c(F)c1F [Example 94, 2-[5-[(2,3-difluoro-4-methylphenyl)methoxy]pyrazol-1-yl]pyridine-4-carboxylic acid]
10 | 1 to 10 | O=C(O)c1ccnc(-n2nccc2OCc2ccc(F)cc2OCc2ccc(F)cc2)c1 [Example 118, 2-[5-[[4-fluoro-2-[(4-fluorophenyl)methoxy]phenyl]methoxy]pyrazol-1-yl]pyridine-4-carboxylic acid]
11 | 1 to 10 | O=C(O)c1ccnc(-n2nccc2OCc2ccc(F)cc2CCc2ccc(F)cc2)c1 [Example 121, 2-[5-[[4-fluoro-2-[2-(4-fluorophenyl)ethyl]phenyl]methoxy]pyrazol-1-yl]pyridine-4-carboxylic acid]
12 | 0.1 to 1 | Cc1cc(F)ccc1COc1ccnn1-c1cc(C(=O)O)ccn1 [Example 128, 2-[5-[(4-fluoro-2-methylphenyl)methoxy]pyrazol-1-yl]pyridine-4-carboxylic acid]
13 | 1 to 10 | CCc1cc(F)ccc1COc1ccnn1-c1cc(C(=O)O)ccn1 [Example 129, 2-[5-[(2-ethyl-4-fluorophenyl)methoxy]pyrazol-1-yl]pyridine-4-carboxylic acid]
14 | 1 to 10 | Cc1ccc(COc2ccnn2-c2cc(C(=O)O)ccn2)c(Cl)c1 [Example 130, 2-[5-[(2-chloro-4-methylphenyl)methoxy]pyrazol-1-yl]pyridine-4-carboxylic acid]
15 | 1 to 10 | Cc1ccc(COc2ccnn2-c2cc(C(=O)O)ccn2)c(F)c1 [Example 131, 2-[5-[(2-fluoro-4-methylphenyl)methoxy]pyrazol-1-yl]pyridine-4-carboxylic acid]
16 | 0.1 to 1 | Cc1ccc(COc2ccnn2-c2cc(C(=O)O)ccn2)c(C)c1 [Example 132, 2-[5-[(2,4-dimethylphenyl)methoxy]pyrazol-1-yl]pyridine-4-carboxylic acid]
17 | 1 to 10 | CC(Oc1cc(Cl)ccc1COc1ccnn1-c1cc(C(=O)O)ccn1)c1ccccc1 (centres unmarked) [Example 136, 2-[5-[[4-chloro-2-(1-phenylethoxy)phenyl]methoxy]pyrazol-1-yl]pyridine-4-carboxylic acid]
18 | 1 to 10 | CC(Oc1cc(F)ccc1COc1ccnn1-c1cc(C(=O)O)ccn1)c1ccccc1 (centres unmarked) [Example 137, 2-[5-[[4-fluoro-2-(1-phenylethoxy)phenyl]methoxy]pyrazol-1-yl]pyridine-4-carboxylic acid]
19 | 1 to 10 | O=C(O)c1ccnc(-n2nccc2OCc2ccc(Cl)c(OCc3ccc(F)cc3)c2)c1 [Example 138, 2-[5-[[4-chloro-3-[(4-fluorophenyl)methoxy]phenyl]methoxy]pyrazol-1-yl]pyridine-4-carboxylic acid]
20 | 1 to 10 | Cc1cc(Br)ccc1COc1ccnn1-c1cc(C(=O)O)ccn1 [Example 142, 2-[5-[(4-bromo-2-methylphenyl)methoxy]pyrazol-1-yl]pyridine-4-carboxylic acid]
21 | 1 to 10 | Cc1cc(I)ccc1COc1ccnn1-c1cc(C(=O)O)ccn1 [Example 144, 2-[5-[(4-iodo-2-methylphenyl)methoxy]pyrazol-1-yl]pyridine-4-carboxylic acid]
22 | 1 to 10 | COc1cc(I)ccc1COc1ccnn1-c1cc(C(=O)O)ccn1 [Example 145, 2-[5-[(4-iodo-2-methoxyphenyl)methoxy]pyrazol-1-yl]pyridine-4-carboxylic acid]
23 | 1 to 10 | CCc1ccc(COc2ccnn2-c2cc(C(=O)O)ccn2)c(F)c1 [Example 151, 2-[5-[(4-ethyl-2-fluorophenyl)methoxy]pyrazol-1-yl]pyridine-4-carboxylic acid]

More lines, now with the values behind:

Row | Structure (SMILES) | IC50 [µM]
24 | O=C(O)c1ccnc(-n2nccc2OCc2ccc(F)c(F)c2)c1 [Example 52, 2-{5-[(3,4-difluorobenzyl)oxy]-1H-pyrazol-1-yl}pyridine-4-carboxylic acid] | 0.1 to 1
25 | O=C(O)c1ccnc(-n2nccc2OCc2ccc(Cl)cc2)c1 [Example 53, 2-{5-[(4-chlorobenzyl)oxy]-1H-pyrazol-1-yl}pyridine-4-carboxylic acid] | 0.1 to 1
26 | Cc1ccc(COc2ccnn2-c2cc(C(=O)O)ccn2)cc1 [Example 55, 2-{5-[(4-methylbenzyl)oxy]-1H-pyrazol-1-yl}pyridine-4-carboxylic acid] | 0.1 to 1
27 | CCc1ccc(COc2ccnn2-c2cc(C(=O)O)ccn2)cc1 [Example 56, 2-{5-[(4-ethylbenzyl)oxy]-1H-pyrazol-1-yl}pyridine-4-carboxylic acid] | 0.1 to 1
28 | O=C(O)c1ccnc(-n2nccc2OCc2cccc(Cl)c2)c1 [Example 58, 2-{5-[(3-chlorobenzyl)oxy]-1H-pyrazol-1-yl}pyridine-4-carboxylic acid] | 0.1 to 1
29 | COC(=O)c1ccnc(-n2nccc2OCc2ccc(F)c(F)c2)c1 [Example 63, methyl 2-{5-[(3,4-difluorobenzyl)oxy]-1H-pyrazol-1-yl}pyridine-4-carboxylate] | 0.1 to 1
30 | COC(=O)c1ccnc(-n2nccc2OCc2ccc(Cl)cc2)c1 [Example 64, Methyl 2-{5-[(4-chlorobenzyl)oxy]-1H-pyrazol-1-yl}pyridine-4-carboxylate] | 0.1 to 1
31 | O=C(O)c1ccnc(-n2nccc2OCC2CCC(F)(F)CC2)c1 [Example 71, 2-{5-[(4,4-difluorocyclohexyl)methoxy]-1H-pyrazol-1-yl}pyridine-4-carboxylic acid] | 1 to 10
32 | Cc1ccc(COc2ccnn2-c2cc(C(=O)O)ccn2)cc1Cl [Example 92, 2-[5-[(3-chloro-4-methylphenyl)methoxy]pyrazol-1-yl]pyridine-4-carboxylic acid] | 0.1 to 1
33 | COC(=O)c1ccnc(-n2nccc2OCc2ccc(C#N)cc2)c1 [Example 98, methyl 2-[5-[(4-cyanophenyl)methoxy]pyrazol-1-yl]pyridine-4-carboxylate] | 1 to 10
34 | N#Cc1ccc(COc2ccnn2-c2cc(C(=O)O)ccn2)cc1 [Example 99, 2-[5-[(4-cyanophenyl)methoxy]pyrazol-1-yl]pyridine-4-carboxylic acid] | 0.1 to 1
35 | CCc1cc(C#N)ccc1COc1ccnn1-c1cc(C(=O)O)ccn1 [Example 126, 2-[5-[(4-cyano-2-ethylphenyl)methoxy]pyrazol-1-yl]pyridine-4-carboxylic acid] | > 10
36 | Cc1ccc(COc2ccnn2-c2cc(C(=O)O)ccn2)c(C#N)c1 [Example 134, 2-[5-[(2-cyano-4-methylphenyl)methoxy]pyrazol-1-yl]pyridine-4-carboxylic acid] | 1 to 10
37 | O=C(O)c1ccnc(-n2nccc2OCc2ccc(Cl)c(OCC3CC3)c2)c1 [Example 140, 2-[5-[[4-chloro-3-(cyclopropylmethoxy)phenyl]methoxy]pyrazol-1-yl]pyridine-4-carboxylic acid] | 1 to 10
38 | O=C(O)c1ccnc(-n2nccc2OCc2ccc(Cl)c(OCC(F)(F)F)c2)c1 [Example 141, 2-[5-[[4-chloro-3-(2,2,2-trifluoroethoxy)phenyl]methoxy]pyrazol-1-yl]pyridine-4-carboxylic acid] | 1 to 10
